In patent US9157917B2, “Applications of Indoloindole and Indoloquinoline dyes” (Biosynth AG, priority 2010, dated 2015):
Blank lines part the entries; values can stand above or below the compound they belong to.

Key:
[1] = tested on: various bacterial strains; test: Nonanoate indicators in buffered peptone water in polystyrene plates; type: cell-based; details: 0.2 mM, polystyrene plate, 37° C., excitation 360 nm, emission 460 nm
Protocol: Buffered peptone water containing either 0.4 mM Aldol™ 495 nonanoate or 0.2 mM 4-methylumbelliferyl nonanoate was dispensed in a microtiter plate and inoculated with about 700 cfu/ml of various bacterial strains. […] An excitation wavelength of 360 nm was used for both dyes, the emission wavelength was 560 nm for the Aldol™ 495 dye and 460 nm for the 4-methylumbelliferone.

[2] = Release of dyes from precursors through heat in PP tubes containing PE pellets; type: physicochemical; details: PP tubes and PE pellets (emptied and flushed with water) after heating for 40 min at 90° C.
Protocol: As a further example the release of Aldol™ 470-, 495-, and 515 dyes from various Aldol™ acetate precursors through heat is given: The compounds were incubated at room temperature and at 90° C. for 40 min in PP tubes containing PE pellets. […] Whereas for all tubes at room temperature neither coloration nor fluorescence was detected, the Aldol™ acetates but not the Aldol™ galactosides were instable at 90° C. and led to fluorescence of the PP and PE host (Table 2).

[3] = tested on: E. coli; test: Fluorescence of colonies on membrane filters; type: cell-based; details: Naked nutrient agar, 0.4 mM, 14-16 hours at 37° C.
[4] = Fluorescence of IO dyes in various hosts; type: physicochemical
Protocol: In this description various IO dyes are given as illustrative examples (Scheme I) but these examples shall not limit the invention in any way. It was discovered that IO/IQ dyes have a strong solvatochromic effect. When, for example, the 470-, 495- and 515-dyes were dissolved in a series of solvents, the fluorescence of the solution was higher the lower the polarity of the solvent was. […] It was also discovered that the fluorescence color might change with the solvent used.

[5] = Stamping on LDPE film, stability to treatments; type: physicochemical
Protocol: Three pieces of felt were soaked with ethanol containing 0.5 mM of Aldol™ 470, Aldol™ 495 or Aldol™ 515 dye respectively. A stamp was pressed first on the felt then on a piece of low density polyethylene film. The film was left to dry for 15 minutes and then exposed to various treatments (Table 4).

[6] = Application of aqueous dye suspensions to PP tubes and PE pellets at different temperatures; type: physicochemical; details: for Fluorescence of PP tubes and PE pellets, comparison between dyes: 22° C., 37° C., 90° C.
Protocol: The application of dye to plastic can be improved by increasing the temperature. Aqueous suspensions of Aldol™ 470, 495, 515 and 518 dyes in PP tubes containing PE pellets were incubated at three different temperatures (22° C., 37° C., and 90° C.). The resulting fluorescence of PP tubes and PE pellets was much stronger after incubation at 90° C. for 5 hours than after 24 hours incubation at 37° C. or 22° C. Incubation at 37° C. led to more fluorescence than incubation at 22° C. Fluorescence after incubation at 22° C. was very weak, except for PE pellets incubated in the presence of Aldol™ 495 dye and Aldol™ 515 dye.

[7] = tested on: phosphatase coupled goat anti rabbit antibody; test: Dot blot on nitrocellulose membrane; type: biochemical; details: 0.4 mM in assay buffer pH 9.5
Text: Western Blotting is a routine technique for protein analysis. A widely used, cost-effective and simple way for signal detection is the reaction of a chromogenic phosphatase indicator with alkaline phosphatase coupled to the secondary antibody, yielding a colored band or spot. The IO/IQ indicators offer an easy way for fluorescent and chromogenic western blotting based on the same principle as the common chromogenic western blotting, the only difference being the phosphatase indicator. […] In addition, after longer incubation the dots were also clearly identified under white light through their yellow color. Thus, IO/IQ indicators offer a way of performing chromogenic and fluorogenic blotting assay at the same time.
0.16 μg of beta-galactosidase in 4 μl of phosphate buffer was spotted on a nitrocellulose membrane. The membrane was dried for 15 min and then blocked in TBS-T (20 mM Tris-HCl, 150 mM NaCl, 0.05% Tween20, pH 7.5) with 5% BSA for one hour. Then the membrane was incubated with a rabbit anti-beta-galactosidase antibody in TBS-T/5% BSA for one hour, washed three times for 5 min in TBS-T, and incubated with a phosphatase coupled goat anti rabbit antibody in TBS-T/5% BSA for one hour. […]

[8] = biological target: E. coli beta-galactosidase (Escherichia coli, UniProt P00722)
Chain of E. coli beta-galactosidase (P00722 2-1024): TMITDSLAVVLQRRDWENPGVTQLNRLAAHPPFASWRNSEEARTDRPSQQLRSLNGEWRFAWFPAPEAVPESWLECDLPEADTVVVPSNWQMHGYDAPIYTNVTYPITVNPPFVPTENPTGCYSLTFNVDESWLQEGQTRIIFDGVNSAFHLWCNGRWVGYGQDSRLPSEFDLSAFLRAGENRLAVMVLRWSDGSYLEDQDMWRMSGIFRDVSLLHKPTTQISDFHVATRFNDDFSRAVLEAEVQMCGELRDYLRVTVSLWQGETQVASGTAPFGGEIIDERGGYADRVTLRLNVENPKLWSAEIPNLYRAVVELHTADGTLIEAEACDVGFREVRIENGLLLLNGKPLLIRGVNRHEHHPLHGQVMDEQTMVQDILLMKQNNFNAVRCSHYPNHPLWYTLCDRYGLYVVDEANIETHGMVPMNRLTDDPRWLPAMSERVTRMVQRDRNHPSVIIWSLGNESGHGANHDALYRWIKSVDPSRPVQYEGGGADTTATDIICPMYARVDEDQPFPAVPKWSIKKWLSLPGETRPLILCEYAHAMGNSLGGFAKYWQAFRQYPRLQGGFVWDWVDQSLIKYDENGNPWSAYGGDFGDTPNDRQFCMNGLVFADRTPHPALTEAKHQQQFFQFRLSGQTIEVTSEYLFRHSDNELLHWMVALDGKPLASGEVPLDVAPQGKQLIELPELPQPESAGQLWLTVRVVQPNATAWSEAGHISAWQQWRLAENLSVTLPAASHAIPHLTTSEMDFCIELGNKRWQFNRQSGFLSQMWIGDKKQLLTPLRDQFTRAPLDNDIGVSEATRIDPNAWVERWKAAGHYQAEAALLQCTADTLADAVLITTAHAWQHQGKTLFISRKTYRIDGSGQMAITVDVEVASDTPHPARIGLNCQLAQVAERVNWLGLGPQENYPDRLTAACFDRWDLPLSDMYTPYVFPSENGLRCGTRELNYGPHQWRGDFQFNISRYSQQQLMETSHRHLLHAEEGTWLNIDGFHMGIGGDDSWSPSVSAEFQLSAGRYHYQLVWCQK
Protocol: 100 mM sodium phosphate buffer (pH 7.3) containing 1 mM MgCl2 and 0.5 mM Aldol™ 495 beta-D-galactoside, was distributed into glass, polystyrene and polypropylene tubes (two of each). Purified E. coli beta-galactosidase was added to half of the tubes, the other half serving as negative controls.

[9] = tested on: E. coli; test: Peptone broth culture in tubes
[10] = tested on: S. enteritidis; test: Peptone broth culture in tubes
[11] = Excitation and emission spectra of dye in polypropylene; type: physicochemical; details: in polypropylene microtiter plate
Protocol: The excitation and emission spectra of the Aldol™ 495 dye in PP were measured in a standard plate reader using a polypropylene microtiter plate that has been incubated with broth containing Aldol™ 495 beta-D-galactoside and an E. coli culture. […] The optimal excitation is at 310 nm (FIG. 1).

[12] = tested on: E. coli; test: Cultures with paraffin oil overlay
[13] = tested on: S. enteritidis; test: Cultures with paraffin oil overlay
[14] = paraffin oil overlay 0 μl, 16 h
[15] = paraffin oil overlay 0 μl, 21 h
[16] = paraffin oil overlay 0 μl, 40 h
[17] = paraffin oil overlay 50 μl, 16 h
[18] = paraffin oil overlay 50 μl, 21 h
[19] = paraffin oil overlay 50 μl, 40 h
[20] = paraffin oil overlay 300 μl, 16 h
[21] = paraffin oil overlay 300 μl, 21 h
[22] = paraffin oil overlay 300 μl, 40 h

Structure (SMILES): CCCCCCCCC(=O)Oc1ccc2c(C)cc(=O)oc2c1 [4-methylumbelliferyl nonanoate, reference compound]
- Fluorescence of C9 esterase negative strains and sterile control [1]: strong fluorescence

- Color of tube [2]: Light yellow
Structure (SMILES): COc1ccc(C(=O)c2ccccc2-n2cc(OC(C)=O)c3ccccc32)c(OC)c1 [Aldol ™ 470 acetate]

- Color of tube [2]: Very light green
Structure (SMILES): CC(=O)Oc1cn(-c2ccccc2C(=O)c2cccn2C)c2cc(Cl)ccc12 [Aldol ™ 495 acetate]

- Color of tube [2]: Very light orange
Structure (SMILES): CC(=O)Oc1cn(-c2ccccc2C(=O)c2ccc(N(C)C)cc2)c2ccccc12 [Aldol ™ 515 acetate]

Structure (SMILES): COc1ccc(C(=O)c2ccccc2-n2cc(NC(=O)[C@H](C)N)c3ccccc32)c(OC)c1 [Aldol™ 470 L-alanine amide]
- Fluorescence of E. coli colonies [3]: No fluorescence

- Color of tube [2]: No color
- Fluorescence of tube [2]: No fluorescence
Structure (SMILES): COc1ccc(C(=O)c2ccccc2-n2cc(O[C@@H]3O[C@H](CO)[C@H](O)[C@H](O)[C@H]3O)c3ccccc32)c(OC)c1 [Aldol™ 470 beta-D-galactoside]

- Fluorescence color ([4]; Acetone): Green
- Fluorescence intensity ([4]; Acetone): Strong
- Fluorescence color ([4]; Ethanol): orange
- Fluorescence color ([4]; Mineral oil): Green
- Fluorescence intensity ([4]; Mineral oil): Medium
- Fluorescence color ([4]; Paraffin oil): Green
- Fluorescence intensity ([4]; Paraffin oil): Medium
- Fluorescence intensity ([4]; Silicon oil): Weak
- Fluorescence of imprint on LDPE film ([5]; After soaking for 18 h in ethanol): No fluorescence
- Fluorescence of PP tubes and PE pellets after 90° C. for 5 hours versus 24 hours at 37° C. or 22° C. [6]: much stronger
Structure (SMILES): COc1ccc(-c2c3n(c4ccccc24)-c2ccccc2C3=O)c(OC)c1 [Aldol™ 470 dye]

Structure (SMILES): COc1ccc(C(=O)c2ccccc2-n2cc(OP(=O)(O)O)c3ccccc32)c(OC)c1 [Aldol™ 470 phosphate]
- Fluorescence or coloration of spot of alpha-amylase (negative control) [7]: No fluorescence or coloration

Structure (SMILES): Cn1cccc1C(=O)c1ccccc1-n1cc(O[C@@H]2O[C@H](CO)[C@H](O)[C@H](O)[C@H]2O)c2ccc(Cl)cc21 [Aldol™ 495 beta-D-galactoside]
- Color of tube [2]: No color
- Fluorescence of tube [2]: No fluorescence
- Color under white light ([8]; 0.5 mM, pH 7.3, glass, polystyrene and polypropylene tubes with beta-galactosidase): red-brown precipitate
- Time until new polypropylene tube started to fluoresce after transfer of content ([8]; content of fluorescent PP tube transferred into new PP tube): around 10 minutes
- Fluorescence of E. coli colonies [3]: No fluorescence
- Fluorescence of PP tube under UV light (366 nm) ([9]; E. coli, 0.4 mM in peptone broth, 16 h incubation): Strong green
- Fluorescence of glass tube ([9]; E. coli, 0.4 mM in peptone broth, glass test tubes): no fluorescence
- Fluorescence of PP tube under UV light (366 nm) ([9]; E. coli, after autoclaving and emptying tube): Strong green
- Fluorescence of PP tube under UV light (366 nm) ([9]; E. coli, after washing in dish-washer): Strong green
- Stability under autoclaving conditions ([9]; in the medium tested): stable under autoclaving conditions
- Fluorescence of PP tube under UV light (366 nm) ([10]; 0.4 mM in peptone broth, 16 h incubation): No fluorescence
- Fluorescence of glass tube ([10]; 0.4 mM in peptone broth, glass test tubes): no fluorescence
- Fluorescence of PP tube under UV light (366 nm) ([10]; after autoclaving and emptying tube): No fluorescence
- Fluorescence of PP tube under UV light (366 nm) ([10]; after washing in dish-washer): No fluorescence

- Fluorescence intensity ([4]; Acetone): Strong
- Fluorescence color ([4]; Mineral oil): Green
- Fluorescence color ([4]; Paraffin oil): Green
- Fluorescence intensity ([4]; Silicon oil): Medium
- Fluorescence color ([4]; Water): None
- Fluorescence intensity ([4]; Water): None
- Emission maximum [11]: 510 nm
- Optimal excitation [11]: 310 nm
- Fluorescence of PP tubes and PE pellets after 90° C. for 5 hours versus 24 hours at 37° C. or 22° C. [6]: much stronger
- Fluorescence of PP tubes and PE pellets, comparison between dyes [6]: more fluorescence than Aldol™ 515 dye
Structure (SMILES): Cn1cccc1-c1c2n(c3ccccc13)-c1cc(Cl)ccc1C2=O [Aldol™ 495 dye]

- Fluorescence color ([4]; Acetone): Red
- Fluorescence intensity ([4]; Acetone): Medium
- Fluorescence color ([4]; Ethanol): Red
- Fluorescence intensity ([4]; Ethanol): Weak
- Fluorescence color ([4]; Mineral oil): Yellow
- Fluorescence color ([4]; Silicon oil): Red
- Fluorescence color ([4]; Water): Red
- Stability of stamping on LDPE ([5]; under the conditions tested, compared with the other dyes): most stable
- Fluorescence of PP tubes and PE pellets after 90° C. for 5 hours versus 24 hours at 37° C. or 22° C. [6]: much stronger
Structure (SMILES): CN(C)c1ccc(-c2c3n(c4ccccc24)-c2ccccc2C3=O)cc1 [Aldol™ 515 dye]
- Fluorescence of PP tubes and PE pellets, comparison between dyes [6]: more fluorescence than Aldol™ 518 dye and Aldol™ 470 dye

- Color of tube [2]: No color
- Fluorescence of tube [2]: No fluorescence
Structure (SMILES): CN(C)c1ccc(C(=O)c2ccccc2-n2cc(O[C@@H]3O[C@H](CO)[C@H](O)[C@H](O)[C@H]3O)c3ccc(Cl)cc32)cc1 [Aldol™ 518 beta-D-galactoside]
- Color [12, 14]: Red
- Color [12, 15]: Red
- Color [12, 16]: Red
- Color [12, 17]: Red
- Color [12, 18]: Red
- Color [12, 19]: Red
- Color [12, 20]: Red
- Color [12, 21]: Red
- Color [12, 22]: Red
- Color [13, 14]: Beige
- Color [13, 15]: Beige
- Color [13, 16]: Beige
- Color [13, 17]: Beige
- Color [13, 18]: Beige
- Color [13, 19]: Beige
- Color [13, 20]: Beige
- Color [13, 21]: Beige
- Color [13, 22]: Beige

- Fluorescence of PP tubes and PE pellets after 90° C. for 5 hours versus 24 hours at 37° C. or 22° C. [6]: much stronger
Structure (SMILES): CN(C)c1ccc(-c2c3n(c4ccccc24)-c2cc(Cl)ccc2C3=O)cc1 [Aldol™ 518 dye]
